In US20040048834A1, “Antitumoral compounds” (priority 2000, published 2004):
pIC50: −log10 of the molar value. Read-outs that look alike come from different tables or passages of the source.

Experiments:
Format in all cases: cell-based
[1] = tested on: MEL28; assay: Cytotoxicity of spisulosine analogs, MEL28 (after Berjeron et al)
[2] = tested on: DU145; assay: Cytotoxicity of spisulosine analogs, DU145 (after Berjeron et al)
[3] = tested on: P388; assay: Cytotoxicity of spisulosine analogs, P388 (after Berjeron et al)
[4] = tested on: A549; assay: Cytotoxicity of spisulosine analogs, A549 (after Berjeron et al)
[5] = tested on: HT29; assay: Cytotoxicity of spisulosine analogs, HT29 (after Berjeron et al)
[6] = MEL28, methodology after Berjeron et al, NA=not active, read-out: Cytotoxicity IC50 MEL28
[7] = DU145, methodology after Berjeron et al, NA=not active, read-out: Cytotoxicity IC50 DU145
[8] = P388, methodology after Berjeron et al, NA=not active, read-out: Cytotoxicity IC50 P388
[9] = A549, methodology after Berjeron et al, NA=not active, read-out: Cytotoxicity IC50 A549
[10] = HT29, methodology after Berjeron et al, NA=not active, read-out: Cytotoxicity IC50 HT29
[11] = Homo sapiens, SK-MEL-28, MEL28, methodology after Berjeron et al, NA=not active, read-out: Cytotoxicity IC50 MEL28
[12] = Homo sapiens, DU-145, DU145, methodology after Berjeron et al, NA=not active, read-out: Cytotoxicity IC50 DU145
[13] = Mus musculus, P388, P388, methodology after Berjeron et al, NA=not active, read-out: Cytotoxicity IC50 P388
[14] = Homo sapiens, A549, A549, methodology after Berjeron et al, NA=not active, read-out: Cytotoxicity IC50 A549
[15] = Homo sapiens, HT-29, HT29, methodology after Berjeron et al, NA=not active, read-out: Cytotoxicity IC50 HT29

SMILES | pIC50 [4, 9] | pIC50 [5, 10] | pIC50 [1, 11] | pIC50 [2, 12] | pIC50 [3, 13] | pIC50 [4, 14] | pIC50 [5, 15] | other results
CCCCCCCCCCCCCCC[C@@H](O)[C@H](C)N(C)C | 6.50 | 6.50 | – | – | – | – | – | pIC50 [1, 6]: 6.50; pIC50 [2, 7]: 6.50; pIC50 [3, 8]: 6.50
CCCCCCCCCCCCCCC[C@@H](O)[C@H](C)NC | 6.48 | 6.48 | – | – | – | – | – | pIC50 [1, 6]: 6.48; pIC50 [2, 7]: 6.48; pIC50 [3, 8]: 6.48
CCCCCCCCCCCCCCCC(=NO)C(C)N (stereo not drawn) | 6.47 | 6.47 | – | – | – | – | – | pIC50 [1, 6]: 6.47; pIC50 [2, 7]: 6.47; pIC50 [3, 8]: 6.47
CCCCCCCCCCCCCCCC(=O)[C@@H](C)N | 6.81 | 6.81 | – | – | – | – | – | pIC50 [1, 6]: 6.50; pIC50 [2, 7]: 6.81; pIC50 [3, 8]: 6.81
CCCCCCCCCCCCCCC[C@H](O)[C@@H](C)N [(2R,3S)-2-Amino-3-octadecanol] | – | – | 6.46 | 6.46 | 6.46 | 6.46 | 6.46 | –
CCCCCCCCCCCCCCCCCCC[C@@H](O)[C@H](C)N [(2S,3R)-2-Amino-3-docosanol] | – | – | – | 5.84 | 6.53 | – | 5.84 | –
CCCCCCCCCCCC[C@@H](O)[C@H](C)N [(2S,3R)-2-Amino-3-pentadecanol] | – | – | 5.69 | 6.39 | 6.39 | 6.39 | 6.39 | –
CCCCCCCCCCC[C@@H](O)[C@H](C)N [(2S,3R)-2-Amino-3-tetradecanol] | – | – | 5.66 | 5.66 | 6.36 | 5.66 | 6.36 | –
CCCCCCCCCCCCCCCCCCCC[C@@H](O)[C@H](C)N [(2S,3R)-2-Amino-3-tricosanol] | – | – | – | 5.55 | 5.85 | – | 5.55 | –
CCCCCCCCCCCCCCC[C@@H](OP(=O)(OC)OC)[C@H](C)N [(2S,3R)-2-Amino-O-(dimethylphosphate)-3-octadecanol] | – | – | – | – | – | – | – | pIC50 ([1]; Homo sapiens, SK-MEL-28, read-out: Cytotoxicity IC50 MEL28): 5.90; pIC50 ([2]; Homo sapiens, DU-145, read-out: Cytotoxicity IC50 DU145): 5.90; pIC50 ([3]; Mus musculus, P388, read-out: Cytotoxicity IC50 P388): 5.90; pIC50 ([4]; Homo sapiens, A549, read-out: Cytotoxicity IC50 A549): 5.90; pIC50 ([5]; Homo sapiens, HT-29, read-out: Cytotoxicity IC50 HT29): 5.90
CCCCCCCCCCCCCCC[C@H](Cl)[C@H](C)N [(2S,3S)-2-Amino-3-chloro-octadecane] | – | – | 6.48 | 6.48 | 6.48 | 6.48 | 6.48 | –
CCCCCCCCCCCCCCC[C@H](O)[C@H](C)N [(2S,3S)-2-Amino-3-octadecanol] | – | – | 6.46 | 6.46 | 6.46 | 6.46 | 6.46 | –
CCCCCCCCCCCCCCC[C@@H](O)[C@H](C)N [drawing 36, spisulosine-285, reference compound] | 7.46 | 7.46 | – | – | – | – | – | pIC50 [1, 6]: 6.76; pIC50 [2, 7]: 7.46; pIC50 [3, 8]: 7.46
CCCCCCCCCCCCCCCC[C@@H](O)[C@H](C)N [drawing 37, (2S,3R)-2-Amino-3-nonadecanol] | 7.48 | 7.48 | 7.48 | 7.48 | 7.48 | – | – | –
CCCCCCCCCCCCCCCCC[C@@H](O)[C@H](C)N [drawing 38, (2S,3R)-2-Amino-3-eicosanol] | 7.50 | 7.50 | 6.50 | 7.50 | 7.50 | – | – | –
CCCCCCCCCCCCC[C@@H](O)[C@H](C)N [drawing 41, (2S,3R)-2-Amino-3-hexadecanol] | 6.71 | 6.41 | 6.43 | 6.71 | 6.41 | – | – | –
CCCCCCCCCCCCCC[C@@H](O)[C@H](C)N [drawing 44, (2S,3R)-2-Amino-3-heptadecanol] | – | – | 7.43 | 7.43 | 7.43 | 7.43 | 7.43 | –
